PubChem BioAssay (NCI)
Where “and” joins values, the source holds several entries; their conditions need not be identical. Equal values may be shown once.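 Grown in 96-well plates, cells were treated for 48 hours with each compound at five concentrations. Insufficient inhibition: endpoint recorded as highest concentration tested. The concentration for 50% growth inhibition is given as GI50. TGI: concentration producing complete growth inhibition.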

What was measured:
Experiment in all cases: DTP human tumour cell line panel, 48 h
HCT-116 colon = system: HCT-116 colon
KM12 colon = system: KM12 colon
SF-268 CNS = system: SF-268 CNS
MALME-3M melanoma = system: MALME-3M melanoma
UACC-62 melanoma = system: UACC-62 melanoma
OVCAR-3 ovarian = system: OVCAR-3 ovarian
SF-539 CNS = system: SF-539 CNS
RPMI-8226 leukemia = system: RPMI-8226 leukemia
NCI-H522 lung = system: NCI-H522 lung

SMILES | TGI (HCT-116 colon) | TGI (KM12 colon) | TGI (SF-268 CNS) | TGI (MALME-3M melanoma) | TGI (UACC-62 melanoma) | TGI (OVCAR-3 ovarian) | TGI (SF-539 CNS) | TGI (RPMI-8226 leukemia) | TGI (NCI-H522 lung) | GI50 (HCT-116 colon) | GI50 (KM12 colon) | GI50 (SF-268 CNS) | GI50 (MALME-3M melanoma) | GI50 (UACC-62 melanoma) | GI50 (RPMI-8226 leukemia) | GI50 (NCI-H522 lung)
COc1ccccc1C(=O)c1c(N2CCCCC2)c(=O)c1=O | > 100 µM | > 100 µM | > 100 µM | > 100 µM | > 100 µM | > 100 µM | > 100 µM | > 100 µM | > 100 µM |  |  |  |  |  |  | 
CC1=NNC(N)=N/C1=C/C(Sc1ccc(Cl)cc1)c1cccs1 (stereo not drawn) | 29.8 µM | 23.1 µM | 30.5 µM | 27.1 µM |  |  |  | 64.3 µM | 18.2 µM |  |  |  |  |  |  | 
O=C1/C(=C/c2cccc(Oc3ccccc3)c2)N=C(c2ccccc2)N1c1nc2ccc(Sc3ccccc3)cc2[nH]1 | > 100 µM | > 100 µM | > 100 µM | > 100 µM | 74.9 µM | 47.7 µM |  | 56.5 µM | 65.8 µM |  |  |  |  |  |  | 
Oc1ccc(-c2c3c(nc4c2CCc2ccc(Br)cc2-4)-c2cc(Br)ccc2CC3)cc1 | 53.7 µM | 42.5 µM | 39.9 µM | 50.4 µM | 44.2 µM | 29.5 µM |  | 77.3 µM | 42.7 µM |  |  |  |  |  |  | 
O=C1NC(=O)/C(=C\c2ccncc2)N1 | > 100 µM | > 100 µM |  |  |  | > 100 µM | > 100 µM |  |  |  |  |  |  |  |  | 
Cc1cc(S(=O)(=O)Nc2n[nH]c(Nc3ccccc3)n2)c(S)cc1Cl | > 10 µM | > 10 µM | > 10 µM | > 10 µM | > 10 µM | > 10 µM | > 10 µM | > 10 µM | > 10 µM |  |  |  |  |  |  | 
CCCCn1cc(C(=O)O)c(=O)c2c3sccc3ccc21 | > 100 µM | > 100 µM | > 100 µM | > 100 µM | > 100 µM | > 100 µM | > 100 µM | > 100 µM | > 100 µM |  |  |  |  |  |  | 
COc1cc2c3c(n(CCCNCCO)c(=O)c2cc1OC)-c1cc2c(cc1C3=O)OCO2 | 1.05 µM and 0.686 µM |  | 0.448 µM | 4.06 µM and 2 µM | 0.842 µM and 0.779 µM | 5.3 µM | 1.36 µM | > 100 µM | 0.966 µM and 3.8 µM | 0.0662 µM and 0.0639 µM | 3.16 µM | < 0.01 µM | 0.252 µM and 0.143 µM | 0.0394 µM | 0.173 µM | 0.0144 µM
Brc1ccc(N2C[N+](c3ccc(Br)cc3)=NC(c3ccccc3)=N2)cc1 | 32.9 µM and > 100 µM | 28.1 µM and > 100 µM | 35.8 µM and > 100 µM | 31.2 µM and > 100 µM | 28.2 µM and > 100 µM |  | 29.8 µM and > 100 µM | 27.7 µM and > 100 µM | 36.4 µM and > 100 µM |  |  |  |  |  |  | 
O=C1c2ccccc2S(=O)(=O)c2ccccc21 | > 100 µM | > 100 µM | > 100 µM | > 100 µM | > 100 µM | > 100 µM | > 100 µM | > 100 µM | > 100 µM |  |  |  |  |  |  | 
Cc1cnc(Cl)nc1C(C#N)c1nc2ccccc2n1C (stereo not drawn) | 51.2 µM | > 100 µM | > 100 µM | > 100 µM |  | > 100 µM | 71.3 µM | > 100 µM | 43.4 µM |  |  |  |  |  |  | 
CCCCCCCCCCCCCCCCOCC(CC(F)(F)P(=O)(O)O)OC(C)=O (stereo not drawn) | > 50 µM | > 50 µM | > 50 µM | > 50 µM | > 50 µM | > 50 µM |  | > 50 µM | > 50 µM |  |  |  |  |  |  | 
CC1(C)CC(=O)C(/C=N/c2nc(-c3ccc(Br)cc3)cs2)=C(O)C1 | > 100 µM | > 100 µM |  |  |  | 62.1 µM | 61 µM |  |  |  |  |  |  |  |  | 
COC(=O)Cc1c(C2=Nc3ccccc3C2(O)CC(=O)OC)[nH]c2ccccc12 (stereo not drawn) | > 100 µM | > 100 µM | > 100 µM | > 100 µM | > 100 µM | > 100 µM | 85.5 µM | > 100 µM | > 100 µM |  |  |  |  |  |  | 
CCCCN(CCCC)C(=NCc1ccccc1)NC#N | 65.4 µM | 83.6 µM | 60.3 µM | 87.4 µM | 33.6 µM | 35.3 µM | 41.2 µM | 79.3 µM | 18.4 µM |  |  |  |  |  |  | 
O=C(C[C@@H]1NCCC[C@H]1O)Cn1cnc2cc(Br)c(Cl)cc2c1=O | 0.121 µM | 0.101 µM | 0.61 µM | 0.144 µM |  | 0.9 µM | 0.347 µM | 0.128 µM | 0.169 µM |  |  |  |  |  |  | 
COc1cc(C2SCC(=O)N2NC(=O)c2ccc(NC(C)=O)cc2)cc(OC)c1OC (stereo not drawn) | > 100 µM | > 100 µM | > 100 µM |  | > 100 µM | > 100 µM | > 100 µM | > 100 µM |  |  |  |  |  |  |  | 
O=C(c1ccccc1F)c1c(NCc2ccccc2)c(=O)c1=O | > 100 µM | > 100 µM | > 100 µM | > 100 µM | > 100 µM | > 100 µM | > 100 µM | > 100 µM | > 100 µM |  |  |  |  |  |  | 
Cc1ccc(S(=O)(=O)Nn2c(-c3ccccc3)c(C#N)c(-c3ccc([N+](=O)[O-])cc3)c(C#N)c2=O)cc1 | > 100 µM | > 100 µM | > 100 µM | > 100 µM | > 100 µM |  | > 100 µM | 64.3 µM | > 100 µM |  |  |  |  |  |  | 
O=C(Cn1c2ccc(Br)cc2c2nc3ccccc3nc21)NC1CCCCC1 | > 100 µM | > 100 µM | > 100 µM | > 100 µM | > 100 µM | > 100 µM |  | > 100 µM | > 100 µM |  |  |  |  |  |  | 
